≈ marks a conversion by molar mass, not a printed value.
assay: not given; conditions: cited from earlier work

**Q.** With `C[C@@H]1[C@H](O)[C@@H](C)/C=C/C=C/C=C/C=C/C=C/C=C/C=C/[C@H](O[C@@H]2O[C@H](C)[C@@H](O)[C@H](N)[C@@H]2O)C[C@@H]2O[C@](O)(C[C@@H](O)C[C@@H](O)[C@H](O)CC[C@@H](O)C[C@@H](O)CC(=O)O[C@H]1C)C[C@H](O)[C@H]2C(=O)O` [Amphotericin B] as the compound, how does the “Solubility in Water” value read?
**A.** 750 µg/mL (≈ 812 µM)

**Q.** For `CC(C)CN(C[C@@H](O)[C@H](Cc1ccccc1)NC(=O)O[C@H]1CCOC1)S(=O)(=O)c1ccc(N)cc1` [Amprenavir], which “Solubility in Water” value is on record?
**A.** 36 µg/mL (≈ 71.2 µM)

**Q.** For `C[C@@H]1C[C@H]2[C@@H]3CCC4=CC(=O)C=C[C@]4(C)[C@@]3(F)[C@@H](O)C[C@]2(C)[C@@]1(O)C(=O)CO` [Dexamethasone], which “Solubility in Water” value is on record?
**A.** 89 µg/mL (≈ 227 µM)

**Q.** Which “Solubility in Water” value does the source give for `C=C1/C(=C\C=C2/CCC[C@]3(C)[C@@H]([C@H](C)/C=C/[C@H](C)C(C)C)CC[C@@H]23)C[C@@H](O)C[C@@H]1O` [Doxercalciferol] here?
**A.** relatively insoluble

**Q.** With `COc1c(C)c2c(c(O)c1C/C=C(\C)CCC(=O)O)C(=O)OC2` [Mycophenolic acid] as the compound, how does the “Solubility in Water” value read?
**A.** insoluble

**Q.** Which “Solubility in Water” value does the source give for `C[C@H](/C=C/[C@H](C)C(C)(C)O)[C@H]1CC[C@H]2/C(=C/C=C3C[C@@H](O)C[C@H](O)C3)CCC[C@]12C` [Paricalcitol] here?
**A.** 6.8 µg/mL (≈ 16.3 µM)

**Q.** For `C[C@]12C=CC(=O)C=C1CC[C@@H]1[C@@H]2C(=O)C[C@@]2(C)[C@H]1CC[C@]2(O)C(=O)CO` [Prednisone], which “Solubility in Water” value is on record?
**A.** 312 µg/mL (≈ 870 µM)

**Q.** With `CC(C)c1cccc(C(C)C)c1O` [Propofol] as the compound, how does the “Solubility in Water” value read?
**A.** 124 µg/mL (≈ 696 µM)

**Q.** For `CO[C@H]1C[C@@H]2CC[C@@H](C)[C@@](O)(O2)C(=O)C(=O)N2CCCC[C@H]2C(=O)O[C@H]([C@H](C)C[C@@H]2CC[C@@H](O)[C@H](OC)C2)CC(=O)[C@H](C)/C=C(\C)[C@@H](O)[C@@H](OC)C(=O)[C@H](C)C[C@H](C)/C=C/C=C/C=C/1C` [Sirolimus], which “Solubility in Water” value is on record?
**A.** insoluble in water

**Q.** Which “Solubility in Water” value does the source give for `C=CC[C@@H]1/C=C(\C)C[C@H](C)C[C@H](OC)[C@H]2O[C@@](O)(C(=O)C(=O)N3CCCC[C@H]3C(=O)O[C@H](/C(C)=C/[C@@H]3CC[C@@H](O)[C@H](OC)C3)[C@H](C)[C@@H](O)CC1=O)[C@H](C)C[C@@H]2OC` [Tacrolimus] here?
**A.** insoluble

**Q.** With `CCCCC(=O)OCC(=O)[C@]1(O)Cc2c(O)c3c(c(O)c2[C@@H](O[C@H]2C[C@H](NC(=O)C(F)(F)F)[C@H](O)[C@H](C)O2)C1)C(=O)c1c(OC)cccc1C3=O` [Valrubicin] as the compound, how does the “Solubility in Water” value read?
**A.** insoluble

assay: Kinetic aqueous solubility of docetaxel derivatives in acetate buffer; conditions: pH 5, aqueous buffer, kinetic from dmso stock
Protocol: An aliquot was diluted 10-fold with 10 mM acetate buffer (pH 5) and the pH was checked and re-adjusted as necessary to reach pH 5. Alternatively, 10 mg of each compound was weighed into a glass vial, and 2 mL of 10 mM acetate buffer (pH 5) was added to the compound, followed by sonication of the suspension for minutes. The precipitate was then removed using Microcon MY100 filters (MW cut-off 100,000 Da) and the filtrate analyzed by UPLC-UV for drug content. The measured solubilities are kinetic solubilities determined under non-equilibrium conditions.

**Q.** With `CC(=O)O[C@@]12CO[C@@H]1C[C@H](OC(=O)CCCN1CCN(C)CC1)[C@@]1(C)C(=O)[C@H](O)C3=C(C)[C@@H](OC(=O)[C@H](O)[C@@H](NC(=O)OC(C)(C)C)c4ccccc4)C[C@@](O)([C@@H](OC(=O)c4ccccc4)C12)C3(C)C` (stereo partly drawn) [TD10, 7-O-(N-methyl-piperazinylbutanoic acid ester)] as the compound, how does the solubility read?
**A.** 3000 µg/mL (≈ 3070 µM)
